Experimental findings from patent publication US7173063B1, “Topoisomerase poisons for the treatment of proliferative disorders” (Fred Hutchinson Cancer Research Center, priority 2000, dated 2007) are described below.

Molecules are shown by their SMILES.

The test system of assay [1] is yeast lacking Ku70 (encoded by the HDF1 gene). Nature of the assay: Yeast toxicity in NHEJ-deficient strain lacking Ku70 (hdf1). The class given is cell-based. On the procedure:
Yeast toxicity assays were performed essentially as follows: Exponentially growing cultures of the appropriate strains were diluted in synthetic complete media to a concentration of 7.4×10^4 cells/mL, and aliquots (135 μL) were transferred to each well of clear flat-bottomed 96 well plates. Compounds were added in duplicate or triplicate as 15 μL of the appropriate dilution in 5% DMSO. A 15 μL portion of 5% DMSO was added to control wells. Assay plates were incubated at 30° C. for approximately seven generations growth in solvent control wells (as monitored by OD660, typically 21–24 hours), then the OD660 of the cultures was measured in a microplate reader (Bio-Tek). Cell growth (OD660) in treated wells was plotted as a percentage of the growth in at least four averaged solvent control wells for the same strain. Camptothecin sodium salt (camptothecin Na) was the agent used in all yeast assays as standard.
The sensitivity of yeast lacking Ku70 (encoded by the HDF1 gene) to camptothecin Na, compounds Ia and IIa, has now been examined. […] Thus the NHEJ pathway is not important for the repair of lesions induced by these compounds in yeast.

Another assay addresses T1, purified Topo I (Homo sapiens, UniProt P11387).
T1 sequence (P11387 1-765): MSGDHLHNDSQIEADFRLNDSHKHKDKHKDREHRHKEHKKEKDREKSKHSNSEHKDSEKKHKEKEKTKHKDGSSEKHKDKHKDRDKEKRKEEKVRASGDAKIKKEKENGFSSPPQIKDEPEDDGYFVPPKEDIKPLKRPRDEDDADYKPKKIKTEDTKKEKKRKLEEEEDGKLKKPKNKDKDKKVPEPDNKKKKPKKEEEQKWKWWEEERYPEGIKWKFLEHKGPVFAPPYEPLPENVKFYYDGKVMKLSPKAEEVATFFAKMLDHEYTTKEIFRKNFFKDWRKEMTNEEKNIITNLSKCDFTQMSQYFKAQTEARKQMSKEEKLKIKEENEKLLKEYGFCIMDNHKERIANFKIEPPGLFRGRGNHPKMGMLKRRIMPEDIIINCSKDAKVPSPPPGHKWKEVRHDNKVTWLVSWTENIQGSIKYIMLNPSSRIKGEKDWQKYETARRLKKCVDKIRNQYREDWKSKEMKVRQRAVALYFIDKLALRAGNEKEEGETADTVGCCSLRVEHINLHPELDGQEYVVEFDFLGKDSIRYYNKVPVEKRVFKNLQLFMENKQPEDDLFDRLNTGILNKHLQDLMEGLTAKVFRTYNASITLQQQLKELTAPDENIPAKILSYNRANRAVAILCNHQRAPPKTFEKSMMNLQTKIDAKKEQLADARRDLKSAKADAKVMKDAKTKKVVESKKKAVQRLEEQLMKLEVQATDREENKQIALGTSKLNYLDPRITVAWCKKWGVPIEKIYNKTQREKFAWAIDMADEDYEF
Nature of the assay: In vitro assay for DNA strand-break formation in the presence of purified Topo I. The class given is biochemical. The following applies: purified Topo I, in vitro; data not shown.

Turning to `O=C(CCl)Nc1ccc(C(=O)N/N=C/c2ccc(Cl)cc2)cc1` [compound Ia], in assay [1], the “sensitivity of NHEJ-deficient (hdf1) mutant compared with wild-type” value is reported as “indistinguishable from that of wild-type”. Moreover, on purified Topo I, the strand-break induction entry was “did not detect strand-break induction”.

For `O=c1c(Cl)c(Cl)cnn1CCCl` [compound IIa], the “sensitivity of NHEJ-deficient (hdf1) mutant compared with wild-type” value in assay [1] is given as “indistinguishable from that of wild-type”. Further, the strand-break induction result on purified Topo I is “did not detect strand-break induction”.
